Reference: paper PMC9917184, “Synthesis and Biological Evaluation of Potential Oncoimmunomodulator Agents” (International Journal of Molecular Sciences, 2023)
Like-named read-outs stand apart in the source and are kept apart here.

Experiments:
membrane VEGFR-2 = assay: Membrane VEGFR-2 relative quantification by flow cytometry in cancer cells co-cultured with Jurkat T cells; format: cell-based, human; details: 100 μM, 24 h; for %VEGFR2 (membrane): relative to non-treated co-cultures
Method: (§1) We determined by flow cytometry the effect of these compounds on the expression of membrane PD-L1 in cancer cells when they were co-cultured with immune cells. Thus, interferon γ-stimulated cancer cells were treated for 24 h with the compounds at 100 μM in presence of Jurkat T cells. Then, cells were fixed and treated with anti-PD-L1 conjugated to AlexaFluor®647. We took advantage of the versatility of flow cytometry to simultaneously measure the expression of membrane VEGFR-2 by using anti-VEGFR-2 conjugated to fluorescein.
(§2) To study the effect of the compounds on every biological target in co-cultured cancer cell lines, the compounds were incubated for 24h as described before.
(§3) To detect membrane PD-L1 and VEGFR-2, after the cell treatments, they were collected, fixed with 4% in PBS paraformaldehyde, and stained with FITC Mouse monoclonal Anti-Human VEGFR-2 (ab184903) and Alexa Fluor® 647 Rabbit monoclonal Anti-PD-L1 (ab215251).

PD-L1 gene expression = PD-L1 gene expression by RT-qPCR in MCF-7; format: cell-based, human; details: MCF-7, 100 µM, 48 h, control = 100
Method: (§4) We also studied the effect of compounds 3, 5, and 7 on both c-Myc and PD-L1 gene expression by RT-qPCR. For this study, we treated MCF-7 cells with 100 µM of the abovementioned compounds, and DMSO was used as a negative control and BMS-8 as a reference compound. After 48 h, cells were lysated, and after the extraction of their mRNA, a RT-pPCR assay was performed as described in the Experimental section.
(§5) MCF-7 cells at 70–80% confluence were collected, and 1.5 × 10^5 cells were placed in a six-well plate in 1.5 mL of medium. After 24h, cells were incubated with the corresponding compounds for 48 h. Cells were collected, and the total cellular RNA from MCF-7 cells was isolated using the Ambion RNA extraction kit according to the manufacturer’s instructions. The cDNA was synthesized by MMLV-RT with […] of extracted RNA and oligo(dT)15 according to the manufacturer’s instructions. Genes were amplified by a thermal cycler and StepOnePlus™ TaqMan® probes. TaqMan® Gene Expression Master Mix Fast containing the appropriate buffer for the amplification conditions, dNTPs, thermostable DNA polymerase enzymes, and a passive reference probe was used. To amplify each of the genes, the predesigned primers sold by Life Technologies TaqMan® Gene Expression Assays, Hs99999903-m1 (β-actin), Hs00153408-m1 (c-Myc), and Hs00204257-m1, (PD-L1) were used.

MCF-7 [1] = assay: MCF-7 cell viability in co-culture with Jurkat T cells (flow cytometry count); format: cell-based, human; details: 24 h; for viability at 100 µM: Homo sapiens, MCF7, MCF-7/Jurkat T co-culture, IFN-γ stimulated, read-out: percentage of living MCF-7 cells relative to non-treated co-cultures; for inhibition rate of MCF-7 cell viability: co-cultured with Jurkat T cells, 100 μM
Method: (§6) The effect of the synthesized compounds on tumor cell proliferation in the presence of PD-1-expressing Jurkat T cells was also studied. This assay was carried out, as in the previous experiments, in the HT29, MCF7, and A549 cell lines (see Table 4). Interferon γ-stimulated cancer cells were treated for 24 h with the compounds at 100 μM in presence of Jurkat T cells. Then, cells were counted using flow cytometry. The percentage of living cells relative to non-treated co-cultures (control) was established for both cancer and immune cells in every co-culture.
(§7) To study the effect of the compounds on the cell viability in co-culture with Jurkat T cells or THP-1 cells, 10^5 or 2 × 10^5 of the corresponding cancer cells line per well were seeded and incubated for 24 h, then the medium was changed by one cell culture medium supplemented with IFN-γ (10 ng/mL; human, Invitrogen®) and containing 5 × 10^5 or 10^5 Jurkat T cells or THP-1, respectively, per well and 100 µM of the corresponding compound or DMSO for the […] control. After 24 h/48 h of incubation, supernatants were collected to determine Jurkat T or THP-1 living cells, and on the other hand, corresponding cancer cells were collected with trypsin. Both types of suspension cells were fixed with 4% in PBS paraformaldehyde and counted by flow cytometry.

Jurkat T cells = assay: Jurkat T cell viability in co-culture with cancer cells (flow cytometry count); format: cell-based; details: Homo sapiens, 24 h, read-out: percentage of living Jurkat cells relative to non-treated co-cultures
Method: as §6, §7

MCF-7 [2] = assay: MCF-7 cell viability in co-culture with THP-1 cells; format: cell-based, human; details: for viability at 100 µM / inhibition at 100 µM: Homo sapiens; for viability at 100 µM: read-out: cancer cell viability (MCF-7); for inhibition at 100 µM: MCF7, read-out: cancer cell inhibition (MCF-7)
Method: The effect of the synthesized compounds on tumor cell proliferation in the presence of human monocytic leukemia cell line THP-1 was also studied. This assay was carried out using MCF-7 as the cancer cell line and different proportions of immune cells. Standard proportions for this assay were 1:5 cancer/immune, and we also carried out this assay using a 2:1 proportion of cancer cells as regards immune THP-1 cells. Assays were performed after 24 and 48 h of treatment and using 100 μM doses of selected compounds.
as §7

membrane PD-L1 = biological target: T1, membrane PD-L1 (Homo sapiens, UniProt Q9NZQ7); assay: Membrane PD-L1 relative quantification by flow cytometry in cancer cells co-cultured with Jurkat T cells; format: cell-based; details: 24 h; for remaining activity at 100 µM / inhibition at 100 µM: Jurkat; for remaining activity at 100 µM: relative to non-treated co-cultures, read-out: % PDL1 (membrane); for inhibition at 100 µM: read-out: membrane PD-L1 inhibition rate
T1 construct: Alexa Fluor® 647 Rabbit monoclonal Anti-PD-L1 (ab215251); endogenous in cells; host or cells: HT-29, MCF-7, A-549 (A17: MCF-7 only; A14: IFN-gamma-stimulated cancer cells co-cultured with Jurkat T cells)
Method: as §1, §2, §3

HT-29 = HT-29 cell viability in co-culture with Jurkat T cells (flow cytometry count); format: cell-based, human; details: 24 h; for viability at 100 µM: Homo sapiens, HT-29/Jurkat T co-culture, IFN-γ stimulated, read-out: percentage of living HT-29 cells relative to non-treated co-cultures
Method: as §6, §7

c-Myc gene expression = c-Myc gene expression by RT-qPCR in MCF-7; format: cell-based, human; details: MCF-7, 100 µM, 48 h, control = 100
Method: as §4, §5

c-Myc = assay: Total c-Myc relative quantification by flow cytometry in cancer cell lines; format: cell-based, human
[3] = A549 co-cultured with Jurkat T cells
[4] = HT29 co-cultured with Jurkat T cells
[5] = MCF7 co-cultured with Jurkat T cells
[6] = MCF7, 24 h, 1:5 MCF-7/THP-1, 100 μM, 24 h, control = 100
[7] = MCF7, 24 h, 2:1 MCF-7/THP-1, 100 μM, 24 h, control = 100
[8] = MCF7, 48 h, 1:5 MCF-7/THP-1, 100 μM, 48 h, control = 100
[9] = MCF7, 48 h, 2:1 MCF-7/THP-1, 100 μM, 48 h, control = 100
[10] = MCF-7 co-cultured with Jurkat T cells
[11] = A-549 co-cultured with Jurkat T cells
[12] = HT-29 co-cultured with Jurkat T cells

T1 sequence (Q9NZQ7 19-290): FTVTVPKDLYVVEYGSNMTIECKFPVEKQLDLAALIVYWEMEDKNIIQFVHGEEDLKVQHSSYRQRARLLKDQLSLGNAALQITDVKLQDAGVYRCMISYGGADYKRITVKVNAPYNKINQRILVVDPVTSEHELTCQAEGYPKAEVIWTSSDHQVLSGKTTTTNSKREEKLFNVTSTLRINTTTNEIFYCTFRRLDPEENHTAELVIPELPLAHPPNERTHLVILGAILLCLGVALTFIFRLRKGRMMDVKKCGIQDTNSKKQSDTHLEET

SMILES	%VEGFR2 (membrane) (membrane VEGFR-2; [3])	%VEGFR2 (membrane) (membrane VEGFR-2; [4])	%VEGFR2 (membrane) (membrane VEGFR-2; [5])	% PD-L1 gene expression (PD-L1 gene expression)	viability at 100 µM (MCF-7 [1])	inhibition rate of MCF-7 cell viability (MCF-7 [1])	viability at 100 µM (Jurkat T cells; A-549/Jurkat T co-culture)	viability at 100 µM (Jurkat T cells; HT-29/Jurkat T co-culture)	viability at 100 µM (Jurkat T cells; MCF-7/Jurkat T co-culture)	viability at 100 µM (MCF-7 [2]; [6])	viability at 100 µM (MCF-7 [2]; [7])	viability at 100 µM (MCF-7 [2]; [8])	viability at 100 µM (MCF-7 [2]; [9])	inhibition at 100 µM (MCF-7 [2]; 2:1 MCF-7/THP-1, 100 μM, 48 h)	remaining activity at 100 µM (membrane PD-L1; [3])	remaining activity at 100 µM (membrane PD-L1; [4])	remaining activity at 100 µM (membrane PD-L1; [5])	inhibition at 100 µM (membrane PD-L1; [10])	viability at 100 µM (HT-29)	% c-Myc gene expression (c-Myc gene expression)	further results
COc1ccc(C(OCCc2ccc(CCn3cc(-c4ccccc4Br)nn3)cc2)(c2ccccc2)c2ccc(OC)cc2)cc1 [Compound 7, 1-(4-(2-(bis(4-methoxyphenyl)(phenyl)methoxy)ethyl)phenethyl)-4-(2-bromophenyl)-1H-1,2,3-triazole]	89 ± 5%	93 ± 3%	100 ± 0%	36 ± 9%	41 ± 4%	around 60%	79 ± 11%	70 ± 8%	94 ± 12%	42 ± 10%	92 ± 11%	41 ± 10%	60 ± 13%	40%	73 ± 6%	89 ± 4%	50 ± 14%	60 to 70%	52 ± 6%	12 ± 5%	
COc1ccc(C(OCCc2ccc(CCn3cc(-c4ccc(Br)cc4)nn3)cc2)(c2ccccc2)c2ccc(OC)cc2)cc1 [Compound 3, 1-(4-(2-(bis(4-methoxyphenyl)(phenyl)methoxy)ethyl)phenethyl)-4-(4-bromophenyl)-1H-1,2,3-triazole]	73 ± 4%	81 ± 7%	81 ± 4%	33 ± 10%	45 ± 4%	around 60%	86 ± 4%	108 ± 33%	75 ± 10%	50%	83 ± 9%	28 ± 2%	51 ± 17%	50%	77 ± 4%	80 ± 2%	52 ± 9%	60 to 70%	111 ± 5%	50 ± 7%	membrane VEGFR-2 inhibition rate (membrane VEGFR-2; [11]): around 20%; membrane VEGFR-2 inhibition rate (membrane VEGFR-2; [12]): around 20%; membrane VEGFR-2 inhibition rate (membrane VEGFR-2; [10]): around 20%; cancer cell viability (MCF-7) (MCF-7 [2]; 1:5 MCF-7/THP-1, 100 μM, 24 h, control = 100, 100 µM): 52 ± 7%; inhibition at 100 µM (membrane PD-L1; [11]): ~20%; inhibition at 100 µM (membrane PD-L1; [12]): ~20%; membrane PD-L1 inhibition rate (membrane PD-L1; MCF-7 co-cultured with Jurkat T cells, 100 μM): half; inhibition rate of HT-29 cell viability (HT-29; co-cultured with Jurkat T cells, 100 μM): not active; % c-Myc (c-Myc; HT-29, dose 10 µM): 109 ± 9%; % c-Myc (c-Myc; HT-29, dose 25 µM): 100 ± 3%; % c-Myc (c-Myc; HT-29, dose 50 µM): 88 ± 5%; % c-Myc (c-Myc; MCF-7, dose 10 µM): 56 ± 5%; % c-Myc (c-Myc; MCF-7, dose 25 µM): 62 ± 5%; % c-Myc (c-Myc; MCF-7, dose 50 µM): 75 ± 9%
Cc1c(COc2ccc(CN3CCCCC3C(=O)O)cc2Br)cccc1-c1ccccc1 (stereo not drawn) [BMS-8, reference compound]	104 ± 9%	63 ± 4%	100 ± 2%	31 ± 12%	57 ± 7%		99 ± 9%	148 ± 11%	53 ± 27%	91 ± 30%	100 ± 4%	42 ± 5%	58 ± 10%		103 ± 3%	105 ± 3%	97 ± 33%		34 ± 5%	30 ± 10%	
COc1ccc(C(OCCc2ccc(CCn3cc(-c4cccc(Br)c4)nn3)cc2)(c2ccccc2)c2ccc(OC)cc2)cc1 [Compound 5, 1-(4-(2-(bis(4-methoxyphenyl)(phenyl)methoxy)ethyl)phenethyl)-4-(3-bromophenyl)-1H-1,2,3-triazole]	92 ± 2%	85 ± 4%	85 ± 4%	21 ± 8%	37 ± 5%		93 ± 9%	48 ± 1%	96 ± 8%	52 ± 4%	107 ± 3%	42 ± 10%	69 ± 10%	30%	115%	153 ± 17%	43 ± 6%	60 to 70%	68 ± 3%	33 ± 5%	
